# Data from paper PMC7846792, “Perception of a divergent family of phytocytokines by the Arabidopsis receptor kinase MIK2” (Nature Communications, 2021).
# No end group written: not given here.
# Tested on: A. thaliana seedlings
# Test: Seedling growth inhibition (fresh weight)
# Type: in vivo, Arabidopsis thaliana
# Settings: mock mean = 1
# Description: Four-day-old seedlings growing on MS plates were transferred individually into separate wells of transparent 48-well tissue culture plates (Greiner Bio-One) containing 500 μL of liquid MS media with/without elicitor addition. The plates were then transferred back to the growth conditions for an additional 10 days before seedlings were blot-dried and weighed.
sequence,measurement,setting,value
ETPPSRSRRGGGG [SCOOP1],"Seedling fresh weight (Fig3C), relative to mock","Col-0, 1 μM, replicate 1",0.767
same,"Seedling fresh weight (Fig3C), relative to mock","Col-0, 1 μM, replicate 2",0.7214
same,"Seedling fresh weight (Fig3C), relative to mock","Col-0, 1 μM, replicate 3",0.5418
same,"Seedling fresh weight (Fig3C), relative to mock","Col-0, 1 μM, replicate 4",0.6909
same,"Seedling fresh weight (Fig3C), relative to mock","Col-0, 1 μM, replicate 5",0.3379
same,"Seedling fresh weight (Fig3C), relative to mock","Col-0, 1 μM, replicate 6",0.5266
same,"Seedling fresh weight (Fig3C), relative to mock","Col-0, 1 μM, replicate 7",0.5662
same,"Seedling fresh weight (Fig3C), relative to mock","Col-0, 1 μM, replicate 8",0.6453
same,"Seedling fresh weight (Fig3C), relative to mock","Col-0, 1 μM, replicate 9",0.5753
same,"Seedling fresh weight (Fig3C), relative to mock","Col-0, 1 μM, replicate 10",0.5996
same,"Seedling fresh weight (Fig3C), relative to mock","Col-0, 1 μM, replicate 11",0.6118
same,"Seedling fresh weight (Fig3C), relative to mock","Col-0, 1 μM, replicate 12",0.4961
same,"Seedling fresh weight (Fig3C), relative to mock","Col-0, 10 μM, replicate 1",0.2426
same,"Seedling fresh weight (Fig3C), relative to mock","Col-0, 10 μM, replicate 2",0.2002
same,"Seedling fresh weight (Fig3C), relative to mock","Col-0, 10 μM, replicate 3",0.1668
same,"Seedling fresh weight (Fig3C), relative to mock","Col-0, 10 μM, replicate 4",0.1698
same,"Seedling fresh weight (Fig3C), relative to mock","Col-0, 10 μM, replicate 5",0.06065
same,"Seedling fresh weight (Fig3C), relative to mock","Col-0, 10 μM, replicate 6",0.1729
same,"Seedling fresh weight (Fig3C), relative to mock","Col-0, 10 μM, replicate 7",0.1759
same,"Seedling fresh weight (Fig3C), relative to mock","Col-0, 10 μM, replicate 8",0.2305
same,"Seedling fresh weight (Fig3C), relative to mock","Col-0, 10 μM, replicate 9",0.2092
same,"Seedling fresh weight (Fig3C), relative to mock","Col-0, 10 μM, replicate 10",0.1607
same,"Seedling fresh weight (Fig3C), relative to mock","Col-0, 10 μM, replicate 11",0.2244
same,"Seedling fresh weight (Fig3C), relative to mock","Col-0, 10 μM, replicate 12",0.2032
same,"Seedling fresh weight (Fig3C), relative to mock","mik2-1, 1 μM, replicate 1",1.15
same,"Seedling fresh weight (Fig3C), relative to mock","mik2-1, 1 μM, replicate 2",1.076
same,"Seedling fresh weight (Fig3C), relative to mock","mik2-1, 1 μM, replicate 3",1.026
same,"Seedling fresh weight (Fig3C), relative to mock","mik2-1, 1 μM, replicate 4",1.019
same,"Seedling fresh weight (Fig3C), relative to mock","mik2-1, 1 μM, replicate 5",1.076
same,"Seedling fresh weight (Fig3C), relative to mock","mik2-1, 1 μM, replicate 6",0.9888
same,"Seedling fresh weight (Fig3C), relative to mock","mik2-1, 1 μM, replicate 7",1.049
same,"Seedling fresh weight (Fig3C), relative to mock","mik2-1, 1 μM, replicate 8",1.026
same,"Seedling fresh weight (Fig3C), relative to mock","mik2-1, 1 μM, replicate 9",0.9619
same,"Seedling fresh weight (Fig3C), relative to mock","mik2-1, 1 μM, replicate 10",0.9215
same,"Seedling fresh weight (Fig3C), relative to mock","mik2-1, 1 μM, replicate 11",0.9619
same,"Seedling fresh weight (Fig3C), relative to mock","mik2-1, 1 μM, replicate 12",0.9922
same,"Seedling fresh weight (Fig3C), relative to mock","mik2-1, 10 μM, replicate 1",1.089
same,"Seedling fresh weight (Fig3C), relative to mock","mik2-1, 10 μM, replicate 2",0.9298
same,"Seedling fresh weight (Fig3C), relative to mock","mik2-1, 10 μM, replicate 3",0.9231
same,"Seedling fresh weight (Fig3C), relative to mock","mik2-1, 10 μM, replicate 4",0.9738
same,"Seedling fresh weight (Fig3C), relative to mock","mik2-1, 10 μM, replicate 5",0.9332
same,"Seedling fresh weight (Fig3C), relative to mock","mik2-1, 10 μM, replicate 6",0.9028
same,"Seedling fresh weight (Fig3C), relative to mock","mik2-1, 10 μM, replicate 7",1.008
same,"Seedling fresh weight (Fig3C), relative to mock","mik2-1, 10 μM, replicate 8",0.9704
same,"Seedling fresh weight (Fig3C), relative to mock","mik2-1, 10 μM, replicate 9",1.085
same,"Seedling fresh weight (Fig3C), relative to mock","mik2-1, 10 μM, replicate 10",1.031
same,"Seedling fresh weight (Fig3C), relative to mock","mik2-1, 10 μM, replicate 11",0.9569
same,"Seedling fresh weight (Fig3C), relative to mock","mik2-1, 10 μM, replicate 12",0.967
GTGPSHSGHGGSS [SCOOP9],"Seedling fresh weight (Fig3C), relative to mock","Col-0, 1 μM, replicate 1",0.7762
same,"Seedling fresh weight (Fig3C), relative to mock","Col-0, 1 μM, replicate 2",0.8462
same,"Seedling fresh weight (Fig3C), relative to mock","Col-0, 1 μM, replicate 3",0.6605
same,"Seedling fresh weight (Fig3C), relative to mock","Col-0, 1 μM, replicate 4",0.7701
same,"Seedling fresh weight (Fig3C), relative to mock","Col-0, 1 μM, replicate 5",0.4809
same,"Seedling fresh weight (Fig3C), relative to mock","Col-0, 1 μM, replicate 6",0.5418
same,"Seedling fresh weight (Fig3C), relative to mock","Col-0, 1 μM, replicate 7",0.6179
same,"Seedling fresh weight (Fig3C), relative to mock","Col-0, 1 μM, replicate 8",0.7457
same,"Seedling fresh weight (Fig3C), relative to mock","Col-0, 1 μM, replicate 9",0.8066
same,"Seedling fresh weight (Fig3C), relative to mock","Col-0, 1 μM, replicate 10",0.831
same,"Seedling fresh weight (Fig3C), relative to mock","Col-0, 1 μM, replicate 11",0.7549
same,"Seedling fresh weight (Fig3C), relative to mock","Col-0, 1 μM, replicate 12",0.7275
same,"Seedling fresh weight (Fig3C), relative to mock","Col-0, 10 μM, replicate 1",0.06065
same,"Seedling fresh weight (Fig3C), relative to mock","Col-0, 10 μM, replicate 2",0.1274
same,"Seedling fresh weight (Fig3C), relative to mock","Col-0, 10 μM, replicate 3",0.1304
same,"Seedling fresh weight (Fig3C), relative to mock","Col-0, 10 μM, replicate 4",0.1061
same,"Seedling fresh weight (Fig3C), relative to mock","Col-0, 10 μM, replicate 5",0.1395
same,"Seedling fresh weight (Fig3C), relative to mock","Col-0, 10 μM, replicate 6",0.08795
same,"Seedling fresh weight (Fig3C), relative to mock","Col-0, 10 μM, replicate 7",0.1759
same,"Seedling fresh weight (Fig3C), relative to mock","Col-0, 10 μM, replicate 8",0.2365
same,"Seedling fresh weight (Fig3C), relative to mock","Col-0, 10 μM, replicate 9",0.1395
same,"Seedling fresh weight (Fig3C), relative to mock","Col-0, 10 μM, replicate 10",0.2032
same,"Seedling fresh weight (Fig3C), relative to mock","Col-0, 10 μM, replicate 11",0.1789
same,"Seedling fresh weight (Fig3C), relative to mock","Col-0, 10 μM, replicate 12",0.1425
same,"Seedling fresh weight (Fig3C), relative to mock","mik2-1, 1 μM, replicate 1",0.8374
same,"Seedling fresh weight (Fig3C), relative to mock","mik2-1, 1 μM, replicate 2",1.059
same,"Seedling fresh weight (Fig3C), relative to mock","mik2-1, 1 μM, replicate 3",0.8173
same,"Seedling fresh weight (Fig3C), relative to mock","mik2-1, 1 μM, replicate 4",0.935
same,"Seedling fresh weight (Fig3C), relative to mock","mik2-1, 1 μM, replicate 5",0.9081
same,"Seedling fresh weight (Fig3C), relative to mock","mik2-1, 1 μM, replicate 6",0.9484
same,"Seedling fresh weight (Fig3C), relative to mock","mik2-1, 1 μM, replicate 7",1.0157
same,"Seedling fresh weight (Fig3C), relative to mock","mik2-1, 1 μM, replicate 8",1.056
same,"Seedling fresh weight (Fig3C), relative to mock","mik2-1, 1 μM, replicate 9",0.972
same,"Seedling fresh weight (Fig3C), relative to mock","mik2-1, 1 μM, replicate 10",1.002
same,"Seedling fresh weight (Fig3C), relative to mock","mik2-1, 1 μM, replicate 11",1.066
same,"Seedling fresh weight (Fig3C), relative to mock","mik2-1, 1 μM, replicate 12",1.039
same,"Seedling fresh weight (Fig3C), relative to mock","mik2-1, 10 μM, replicate 1",0.8757
same,"Seedling fresh weight (Fig3C), relative to mock","mik2-1, 10 μM, replicate 2",0.9704
same,"Seedling fresh weight (Fig3C), relative to mock","mik2-1, 10 μM, replicate 3",1.224
same,"Seedling fresh weight (Fig3C), relative to mock","mik2-1, 10 μM, replicate 4",0.9062
same,"Seedling fresh weight (Fig3C), relative to mock","mik2-1, 10 μM, replicate 5",0.9941
same,"Seedling fresh weight (Fig3C), relative to mock","mik2-1, 10 μM, replicate 6",0.8622
same,"Seedling fresh weight (Fig3C), relative to mock","mik2-1, 10 μM, replicate 7",0.9772
same,"Seedling fresh weight (Fig3C), relative to mock","mik2-1, 10 μM, replicate 8",0.9028
same,"Seedling fresh weight (Fig3C), relative to mock","mik2-1, 10 μM, replicate 9",0.94
same,"Seedling fresh weight (Fig3C), relative to mock","mik2-1, 10 μM, replicate 10",1.021
same,"Seedling fresh weight (Fig3C), relative to mock","mik2-1, 10 μM, replicate 11",0.9062
same,"Seedling fresh weight (Fig3C), relative to mock","mik2-1, 10 μM, replicate 12",0.9298
